Data reported in ChEMBL document CHEMBL1135196, “4-Aminoarylguanidine and 4-aminobenzamidine derivatives as potent and selective urokinase-type plasminogen activator inhibitors” (Bioorg Med Chem Lett, 2002).

Experiments:
Coagulation factor X [1] = molecular target: T1, Coagulation factor X (Homo sapiens, UniProt P00742); assay: The compound was evaluated to inhibit the Coagulation factor X
Plasminogen = Plasminogen (Homo sapiens, UniProt P00747); assay: Inhibition of plasmin
Prothrombin = Prothrombin (Homo sapiens, UniProt P00734); assay: Inhibition of thrombin
[2] = molecular target: T2, Tissue-type plasminogen activator (Homo sapiens, UniProt P00750); assay: Activation of plasminogen
T2 sequence (P00750 whole entry): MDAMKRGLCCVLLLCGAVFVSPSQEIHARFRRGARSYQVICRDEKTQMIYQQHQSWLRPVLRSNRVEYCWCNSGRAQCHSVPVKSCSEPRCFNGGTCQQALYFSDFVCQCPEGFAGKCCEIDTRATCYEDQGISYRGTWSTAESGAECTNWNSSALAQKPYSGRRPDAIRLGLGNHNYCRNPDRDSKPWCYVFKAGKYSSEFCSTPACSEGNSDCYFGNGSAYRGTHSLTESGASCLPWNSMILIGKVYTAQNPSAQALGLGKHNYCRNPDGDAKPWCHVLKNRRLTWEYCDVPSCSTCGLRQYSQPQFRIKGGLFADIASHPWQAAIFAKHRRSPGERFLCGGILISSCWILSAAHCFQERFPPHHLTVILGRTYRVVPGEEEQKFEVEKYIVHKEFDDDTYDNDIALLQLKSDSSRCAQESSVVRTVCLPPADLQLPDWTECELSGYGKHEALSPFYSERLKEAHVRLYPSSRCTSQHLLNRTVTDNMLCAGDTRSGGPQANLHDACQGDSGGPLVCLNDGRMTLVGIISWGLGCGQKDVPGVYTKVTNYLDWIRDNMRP

[3] = molecular target: Urokinase-type plasminogen activator (Homo sapiens, UniProt P00749)
Description: Inhibition of urokinase-type plasminogen activator (microPa)

Coagulation factor X [4] = molecular target: T1, Coagulation factor X; assay: Inhibition of coagulation factor X
[5] = molecular target: T2, Tissue-type plasminogen activator; assay: Activation of tissue plasminogen

Plasminogen, sequence (P00747 97-580 limits assumed): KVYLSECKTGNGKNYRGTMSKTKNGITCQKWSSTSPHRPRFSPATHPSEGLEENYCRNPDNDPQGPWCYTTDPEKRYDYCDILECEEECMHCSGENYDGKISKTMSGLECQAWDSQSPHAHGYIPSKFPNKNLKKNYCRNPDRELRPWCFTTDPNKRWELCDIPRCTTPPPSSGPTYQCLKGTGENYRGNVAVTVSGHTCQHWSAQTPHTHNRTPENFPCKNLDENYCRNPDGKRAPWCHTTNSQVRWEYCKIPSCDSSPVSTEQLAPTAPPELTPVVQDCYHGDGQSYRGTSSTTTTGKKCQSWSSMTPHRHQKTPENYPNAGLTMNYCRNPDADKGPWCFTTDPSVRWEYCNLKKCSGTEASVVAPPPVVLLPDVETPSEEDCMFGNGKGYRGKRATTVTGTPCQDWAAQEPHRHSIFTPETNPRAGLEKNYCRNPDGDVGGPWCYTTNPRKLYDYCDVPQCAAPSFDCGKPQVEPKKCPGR
Plasminogen, sequence (P00747 581-810 limits assumed): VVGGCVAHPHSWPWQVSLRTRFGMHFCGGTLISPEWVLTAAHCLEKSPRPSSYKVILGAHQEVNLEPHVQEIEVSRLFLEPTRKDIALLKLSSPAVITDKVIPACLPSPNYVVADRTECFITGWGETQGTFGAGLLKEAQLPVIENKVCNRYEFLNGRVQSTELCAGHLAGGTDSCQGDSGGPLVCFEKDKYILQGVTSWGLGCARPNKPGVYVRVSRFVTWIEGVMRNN
T1 sequence (P00742 41-179 limits assumed): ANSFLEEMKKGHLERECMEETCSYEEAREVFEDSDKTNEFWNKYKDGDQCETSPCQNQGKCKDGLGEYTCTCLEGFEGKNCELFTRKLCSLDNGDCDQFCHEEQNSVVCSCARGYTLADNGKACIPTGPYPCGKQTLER
T1 sequence (P00742 235-488 limits assumed): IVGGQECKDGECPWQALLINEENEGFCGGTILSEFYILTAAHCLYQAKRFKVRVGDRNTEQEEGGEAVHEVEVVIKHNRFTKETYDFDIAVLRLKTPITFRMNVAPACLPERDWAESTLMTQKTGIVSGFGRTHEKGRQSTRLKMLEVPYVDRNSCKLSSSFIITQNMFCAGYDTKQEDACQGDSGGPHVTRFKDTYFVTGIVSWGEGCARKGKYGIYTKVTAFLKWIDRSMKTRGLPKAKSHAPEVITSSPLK

Ki (Plasminogen)	Ki (Coagulation factor X [4])	Ki [5]	SMILES	Ki (Coagulation factor X [1])	Ki (Prothrombin)	Ki [2]	Ki [3]
–	> 470 µM	> 95 µM	NC(N)=Nc1ccc(NC(=O)c2cccc(-c3ccccc3)c2O)cc1	–	> 450 µM	–	–
–	> 470 µM	> 95 µM	NC(N)=Nc1ccc(NC(=O)c2ccc(Cl)cc2O)cc1	–	> 450 µM	–	–
> 75 µM	104 µM	–	NC(N)=Nc1ccc(NC(=O)c2ccccc2O)cc1	–	> 450 µM	> 95 µM	–
–	240 µM	> 563 µM	CC(C)Oc1c(O)c(C(=O)Nc2ccc(NC(=N)N)cc2)cc2ccccc12	–	> 450 µM	–	–
–	–	–	CCOc1ccc(C(=O)Nc2ccc(C(=N)N)cc2)c(O)c1	37 µM	34 µM	2 µM	0.65 µM
–	350 µM	> 95 µM	Cc1cccc(C(=O)Nc2ccc(NC(=N)N)cc2)c1O	–	> 450 µM	–	–
> 75 µM	68 µM	–	N=C(N)Nc1ccc(NC(=O)c2cc3ccccc3c(I)c2O)cn1	–	310 µM	–	–
> 75 µM	> 470 µM	> 95 µM	N=C(N)Nc1ccc(NC(=O)c2cc3ccccc3c(I)c2O)cc1	–	> 450 µM	–	–
–	–	–	COc1ccc(O)c(C(=O)Nc2ccc(C(=N)N)cc2)c1	5.2 µM	12 µM	9.4 µM	3.1 µM
–	> 470 µM	–	NC(N)=Nc1ccc(NC(=O)c2cc(Br)ccc2O)cc1	–	> 450 µM	> 95 µM	–
–	–	–	N=C(N)c1ccc(NC(=O)c2cc(Br)ccc2O)cc1	15 µM	29 µM	21 µM	–
–	–	–	Cc1ccc(O)c(C(=O)Nc2ccc(C(=N)N)cc2)c1	9.4 µM	14 µM	6.9 µM	2.6 µM
–	–	–	N=C(N)c1ccc(NC(=O)c2cc([N+](=O)[O-])ccc2O)cc1	99 µM	185 µM	94 µM	44 µM
> 75 µM	> 470 µM	> 95 µM	CCOc1ccc(C(=O)Nc2ccc(NC(=N)N)cc2)c(O)c1	–	> 450 µM	–	10 µM
> 75 µM	> 470 µM	> 95 µM	N=C(N)Nc1ccc(NC(=O)c2cc3ccccc3c(Br)c2O)cc1	–	> 450 µM	–	–
> 75 µM	> 470 µM	> 563 µM	Cc1cc(I)c(O)c(C(=O)Nc2ccc(NC(=N)N)cc2)c1	–	> 450 µM	–	8.5 µM
–	> 470 µM	> 95 µM	Cc1ccc(C(=O)Nc2ccc(NC(=N)N)cc2)c(O)c1	–	> 450 µM	–	–
–	> 470 µM	–	N=C(N)Nc1ccc(NC(=O)c2cc([N+](=O)[O-])ccc2O)cc1	–	315 µM	> 95 µM	> 75 µM
–	> 470 µM	> 95 µM	COc1ccc(O)c(C(=O)Nc2ccc(NC(=N)N)cc2)c1	–	> 450 µM	–	20 µM
> 75 µM	235 µM	–	N=C(N)Nc1ccc(NC(=O)c2cc3ccccc3c(Br)c2O)cn1	–	330 µM	–	–
> 75 µM	> 470 µM	–	Cc1ccc(O)c(C(=O)Nc2ccc(NC(=N)N)cc2)c1	–	> 450 µM	> 95 µM	–

SMILES	Ki (Plasminogen)	Ki (Coagulation factor X [4])	Ki [5]	Ki (Coagulation factor X [1])	Ki (Prothrombin)	Ki [2]	Ki [3]
N=C(N)c1ccc(NC(=O)c2ccc(Cl)cc2O)cc1	27 µM	–	–	2.8 µM	9.5 µM	2.4 µM	6 µM
N=C(N)c1ccc(NC(=O)c2cccc(-c3ccccc3)c2O)cc1	–	188 µM	–	–	120 µM	53 µM	8.5 µM
Cc1cc(I)c(O)c(C(=O)Nc2ccc(C(=N)N)c(F)c2)c1	–	0.52 µM	–	–	–	1.7 µM	–
NC(N)=Nc1ccc(NC(=O)c2cccc(Cl)c2O)cc1	–	470 µM	> 95 µM	–	> 450 µM	–	–
N=C(N)c1ccc(NC(=O)c2cccc(Cl)c2O)cc1	–	1 µM	–	–	1 µM	1.5 µM	0.6 µM
Cc1cccc(C(=O)Nc2ccc(C(=N)N)cc2)c1O	18 µM	5.7 µM	–	–	8 µM	3.9 µM	1.7 µM
Cc1cc(Br)c(O)c(C(=O)Nc2ccc(C(=N)N)cc2)c1	–	0.44 µM	–	–	0.28 µM	0.36 µM	–
[H]/N=C(/N)c1ccc(NC(=O)c2cc(C)cc(I)c2O)cc1Cl	–	115 µM	–	–	245 µM	256 µM	–
Cc1ccc(C(=O)Nc2ccc(C(=N)N)cc2)c(O)c1	6 µM	2.3 µM	–	–	10 µM	3.6 µM	1 µM
Cc1cc(I)c(O)c(C(=O)Nc2ccc(C(=N)N)cc2)c1	0.29 µM	0.46 µM	–	–	0.38 µM	0.24 µM	–
Cc1cc(Br)c(O)c(C(=O)Nc2ccc(NC(=N)N)cc2)c1	205 µM	151 µM	258 µM	–	125 µM	–	–
N=C(N)c1ccc(NC(=O)c2ccccc2O)cc1	90 µM	–	10 µM	12 µM	22 µM	–	2.7 µM
